Assay results: ChEMBL document CHEMBL1147171, “Synthesis and antiplasmodial activity of new N-[3-(4-{3-[(7-chloroquinolin-4-yl)amino]propyl}piperazin-1-yl)propyl]carboxamides” (Bioorg Med Chem, 2007)

Assays:
[1] = test system: L6; test: Cytotoxicity against L6 cells; format: cell-based; details: Rattus norvegicus
[2] = test system: Plasmodium falciparum; test: Antiparasitic activity against chloroquine, pyrimethamine-resistant Plasmodium falciparum K1 in erythrocytes by [3H]hypoxanthine uptake; format: functional, organism-based
[3] = test system: Plasmodium falciparum; test: Relative activity against Plasmodium falciparum NF54 and K1 as IC50 ratio; format: functional
[4] = test system: Plasmodium falciparum; test: Antiparasitic activity against chloroquine-sensitive Plasmodium falciparum NF54 in erythrocytes by [3H]hypoxanthine uptake; format: functional, organism-based

Row | SMILES | IC50 [1] [nM] | IC50 [2] [nM] | Ratio IC50 [3] | IC50 [4] [nM]
1 | COc1cccc(C(=O)NCCCN2CCN(CCCNc3ccnc4cc(Cl)ccc34)CC2)c1 | 9300 | 28 | 0.36 | 10
2 | O=C(NCCCN1CCN(CCCNc2ccnc3cc(Cl)ccc23)CC1)c1cc(Cl)cc(Cl)c1 | 3000 | 12 | 0.58 | 7
3 | CC(C)=CC(=O)NCCCN1CCN(CCCNc2ccnc3cc(Cl)ccc23)CC1 | 30000 | 65 | 0.36 | 23
4 | COc1ccc(C(=O)NCCCN2CCN(CCCNc3ccnc4cc(Cl)ccc34)CC2)cc1OC |  | 447 | 0.08 | 36
5 | O=C(NCCCN1CCN(CCCNc2ccnc3cc(Cl)ccc23)CC1)c1ccccc1C(=O)c1ccccc1 | 3200 | 17 | 0.59 | 10
6 | O=C(NCCCN1CCN(CCCNc2ccnc3cc(Cl)ccc23)CC1)c1ccc(Oc2ccccc2)cc1 | 1400 | 15 | 0.6 | 9
7 | O=C(CCCC1CCCCC1)NCCCN1CCN(CCCNc2ccnc3cc(Cl)ccc23)CC1 |  | 272 | 0.57 | 156
8 | CCCCCC(=O)NCCCN1CCN(CCCNc2ccnc3cc(Cl)ccc23)CC1 |  | 900 | 0.38 | 338
9 | O=C(Cc1cccc2ccccc12)NCCCN1CCN(CCCNc2ccnc3cc(Cl)ccc23)CC1 | 6200 | 41 | 0.32 | 13
10 | CCc1ccc(C(=O)NCCCN2CCN(CCCNc3ccnc4cc(Cl)ccc34)CC2)cc1 | 3900 | 13 | 0.62 | 8
11 | CC(=O)CCC(=O)NCCCN1CCN(CCCNc2ccnc3cc(Cl)ccc23)CC1 | 11000 | 380 | 0.15 | 59
12 | CC(C)CC(=O)NCCCN1CCN(CCCNc2ccnc3cc(Cl)ccc23)CC1 |  | 78 | 0.17 | 13
13 | O=C(Cc1c(Cl)cccc1Cl)NCCCN1CCN(CCCNc2ccnc3cc(Cl)ccc23)CC1 | 5300 | 36 | 0.32 | 11
14 | O=C(NCCCN1CCN(CCCNc2ccnc3cc(Cl)ccc23)CC1)c1ccc(F)c(F)c1 | 10000 | 13 | 0.54 | 7
15 | O=C(CC1CCCCC1)NCCCN1CCN(CCCNc2ccnc3cc(Cl)ccc23)CC1 | 7200 | 27 | 0.37 | 10
16 | NC(=O)c1ccc(C(=O)NCCCN2CCN(CCCNc3ccnc4cc(Cl)ccc34)CC2)cc1 |  | 249 | 0.33 | 83
17 | O=C(NCCCN1CCN(CCCNc2ccnc3cc(Cl)ccc23)CC1)c1ccc(Cl)c([N+](=O)[O-])c1 | 11300 | 43 | 0.47 | 20
18 | Cc1ccccc1C(=O)NCCCN1CCN(CCCNc2ccnc3cc(Cl)ccc23)CC1 |  | 34 | 0.29 | 10
19 | O=C(CCCOc1ccccc1)NCCCN1CCN(CCCNc2ccnc3cc(Cl)ccc23)CC1 | 9300 | 73 | 0.16 | 12
20 | O=C(NCCCN1CCN(CCCNc2ccnc3cc(Cl)ccc23)CC1)c1cccc(OC(F)(F)F)c1 | 8500 | 15 | 0.8 | 12
21 | O=C(NCCCN1CCN(CCCNc2ccnc3cc(Cl)ccc23)CC1)c1ccc(C(=O)c2ccccc2)cc1 |  | 3070 | 0.5 | 1540
22 | O=C(NCCCN1CCN(CCCNc2ccnc3cc(Cl)ccc23)CC1)c1cc(F)cc(F)c1 | 11600 | 26 | 0.39 | 10
23 | CCOc1ccc(C(=O)NCCCN2CCN(CCCNc3ccnc4cc(Cl)ccc34)CC2)cc1 | 5300 | 12 | 0.67 | 8
24 | O=C(NCCCN1CCN(CCCNc2ccnc3cc(Cl)ccc23)CC1)c1cccc(C(F)(F)F)c1 | 30100 | 53 | 0.68 | 37
25 | O=C(NCCCN1CCN(CCCNc2ccnc3cc(Cl)ccc23)CC1)C(c1ccccc1)c1ccccc1 | 9300 | 106 | 0.24 | 25
26 | CCN(CC)CCCC(C)Nc1ccnc2cc(Cl)ccc12 (stereo not given) [CHLOROQUINE] | 7700 |  |  | 
27 | O=C(CCCCc1ccccc1)NCCCN1CCN(CCCNc2ccnc3cc(Cl)ccc23)CC1 | 9400 | 54 | 0.22 | 12
28 | O=C(Cc1ccc(Cl)cc1Cl)NCCCN1CCN(CCCNc2ccnc3cc(Cl)ccc23)CC1 | 15100 | 24 | 0.34 | 8
29 | O=C(CCCc1c[nH]c2ccccc12)NCCCN1CCN(CCCNc2ccnc3cc(Cl)ccc23)CC1 | 6500 | 69 | 0.22 | 15
30 | O=C(CCCc1ccccc1)NCCCN1CCN(CCCNc2ccnc3cc(Cl)ccc23)CC1 | 11000 | 61 | 0.28 | 17
